According to patent US7759375B2, “Epothilones C, D, E, and F, preparation and compositions” (priority 1996, dated 2010):
Values after ≈ are worked out from the molar mass of the structure shown. Where two headings read alike, the source gives them in different places.

Key:
[1] = tested on: Mouse fibroblasts L 929; test: Growth inhibition in cell culture, mouse fibroblasts L929; type: cell-based
Procedure: (§1) The epothilones according to the invention were tested with cell cultures (Table 2) and for promotion of polymerization (Table 3).

[2] = tested on: HL-60 (leukaemia); test: Growth inhibition in cell culture, HL-60; type: cell-based, human
Procedure: as §1

[3] = tested on: K-562 (leukaemia); test: Growth inhibition in cell culture, K-562; type: cell-based, human
Procedure: as §1

[4] = tested on: U-937 (lymphoma); test: Growth inhibition in cell culture, U-937; type: cell-based, human
Procedure: as §1

[5] = tested on: KB-3.1 (carcinoma of the cervix); test: Growth inhibition in cell culture, KB-3.1; type: cell-based, human
Procedure: as §1

[6] = tested on: KB-VI (carcinoma of the cervix multires); test: Growth inhibition in cell culture, KB-VI; type: cell-based, human
Procedure: as §1

[7] = tested on: A-549 (carcinoma of the lung); test: Growth inhibition in cell culture, A-549; type: cell-based, human
Procedure: as §1

[8] = biological target: T1, purified tubulin from pigs' brain (Sus scrofa, UniProt P02554); type: biochemical, pig; details: 0.9 mg of tubulin/ml, 1 μM sample concentration; for Time up to the half-maximal polymerization, Agent [%] (relative activity in % of the control): control = 100, lowest values indicate the best activity; for Time up to the half-maximal polymerization of the control, Agent [s]: average of experiments w-z, control 190 s; for Time up to the half-maximal polymerization of the control, measurement w: independent experiment w; for Time up to the half-maximal polymerization of the control, measurement x: independent experiment x; for Time up to the half-maximal polymerization of the control, measurement y: independent experiment y; for Time up to the half-maximal polymerization of the control, measurement z: independent experiment z
T1 construct: purified tubulin from pigs' brain; from tissue; host or cells: pig brain
T1 sequence (P02554 whole entry): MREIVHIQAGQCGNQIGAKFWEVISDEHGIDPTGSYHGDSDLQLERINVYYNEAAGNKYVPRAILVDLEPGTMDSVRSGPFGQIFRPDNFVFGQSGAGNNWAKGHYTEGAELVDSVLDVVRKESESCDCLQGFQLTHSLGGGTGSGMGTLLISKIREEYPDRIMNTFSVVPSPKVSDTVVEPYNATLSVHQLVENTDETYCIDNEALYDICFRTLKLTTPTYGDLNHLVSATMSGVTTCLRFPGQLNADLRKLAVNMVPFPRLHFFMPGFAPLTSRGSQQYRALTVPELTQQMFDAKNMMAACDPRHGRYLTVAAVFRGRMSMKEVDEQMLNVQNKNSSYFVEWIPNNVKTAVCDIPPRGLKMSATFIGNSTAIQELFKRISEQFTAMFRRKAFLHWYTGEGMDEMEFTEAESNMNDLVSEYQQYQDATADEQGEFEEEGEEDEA
T1 sequence (P02550 whole entry partner): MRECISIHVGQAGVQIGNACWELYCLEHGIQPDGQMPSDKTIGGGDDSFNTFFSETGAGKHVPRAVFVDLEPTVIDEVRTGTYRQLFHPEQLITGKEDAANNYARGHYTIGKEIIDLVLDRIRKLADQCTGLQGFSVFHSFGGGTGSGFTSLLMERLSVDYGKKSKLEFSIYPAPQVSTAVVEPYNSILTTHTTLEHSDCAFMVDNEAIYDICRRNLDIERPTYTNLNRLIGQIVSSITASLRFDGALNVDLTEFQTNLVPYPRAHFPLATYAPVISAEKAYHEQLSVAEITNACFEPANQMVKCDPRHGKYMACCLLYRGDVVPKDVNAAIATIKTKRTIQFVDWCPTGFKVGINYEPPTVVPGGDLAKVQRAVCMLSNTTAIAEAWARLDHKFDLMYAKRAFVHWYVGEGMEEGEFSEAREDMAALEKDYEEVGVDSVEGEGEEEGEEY
Procedure: as §1
The polymerization test is an in vitro test using purified tubulin from pigs' brain. Evaluation is carried out photometrically.

[9] = tested on: A-498 (carcinoma of the kidney); test: Growth inhibition in cell culture, A-498; type: cell-based, human
Procedure: as §1

[10] = KB-3.1 (carcinoma of the cervix)
[11] = KB-VI (carcinoma of the cervix multires)
[12] = A-498 (carcinoma of the kidney)

| Compound | IC-50 ([1]; Mouse fibroblasts L 929) | IC-50 ([2]; HL-60 (leukaemia)) | IC-50 ([3]; K-562 (leukaemia)) | IC-50 ([4]; U-937 (lymphoma)) | IC-50 [5, 10] | IC-50 [6, 11] | IC-50 ([7]; A-549 (carcinoma of the lung)) | Time up to the half-maximal polymerization, Agent [%] (relative activity in % of the control) [8] | Time up to the half-maximal polymerization of the control, Agent [s] [8] | Time up to the half-maximal polymerization of the control, measurement w [8] | Time up to the half-maximal polymerization of the control, measurement x [8] | Time up to the half-maximal polymerization of the control, measurement y [8] | Time up to the half-maximal polymerization of the control, measurement z [8] | IC-50 [9, 12] | IC-50 [1] | IC-50 [2] | IC-50 [3] | IC-50 [4] | IC-50 [5] | IC-50 [6] | also measured |
| --- | --- | --- | --- | --- | --- | --- | --- | --- | --- | --- | --- | --- | --- | --- | --- | --- | --- | --- | --- | --- | --- |
| C/C(=C\c1csc(C)n1)[C@@H]1C[C@@H]2O[C@@H]2CCC[C@H](C)[C@H](O)[C@@H](C)C(=O)C(C)(C)[C@@H](O)CC(=O)O1 [Epothilone A, epothilone A, reference compound] | 4 ng/mL | 0.2 ng/mL | 0.3 ng/mL | 0.2 ng/mL | 1 ng/mL | 0.3 ng/mL | 0.7 ng/mL | 39% | 74 s | 95 s | 60 s | 70 s | 70 s | – | – | – | – | – | – | – | IC50 ([1]; Mouse fibroblasts, L929, concentration which reduces the growth by 50%): 4 ng/mL (≈ 8.1 nM); IC50 ([5]; HeLa KB-3.1 (human), concentration which reduces the growth by 50%): 1 ng/mL (≈ 2.03 nM) |
| C/C(=C\c1csc(C)n1)[C@@H]1C[C@@H]2O[C@]2(C)CCC[C@H](C)[C@H](O)[C@@H](C)C(=O)C(C)(C)[C@@H](O)CC(=O)O1 [Epothilone B, epothilone B, reference compound] | 1 ng/mL | 0.2 ng/mL | 0.3 ng/mL | 0.2 ng/mL | 0.6 ng/mL | 0.3 ng/mL | 0.1 ng/mL | 14% | 26 s | – | 23 s | 25 s | 30 s | 1.5 ng/mL | – | – | – | – | – | – | – |
| C/C(=C\c1csc(C)n1)[C@@H]1C/C=C\CCC[C@H](C)[C@H](O)[C@@H](C)C(=O)C(C)(C)[C@@H](O)CC(=O)O1 [Epothilone C] | 100 ng/mL | 10 ng/mL | 20 ng/mL | 10 ng/mL | 20 ng/mL | 15 ng/mL | 30 ng/mL | 49% | 94 s | 125 s | 76 s | 95 s | 80 s | 150 ng/mL | – | – | – | – | – | – | – |
| C/C1=C/C[C@@H](/C(C)=C/c2csc(C)n2)OC(=O)C[C@H](O)C(C)(C)C(=O)[C@H](C)[C@@H](O)[C@@H](C)CCC1 [Epothilone D] | 20 ng/mL | 3 ng/mL | 10 ng/mL | 3 ng/mL | 12 ng/mL | 3 ng/mL | 10 ng/mL | 56% | 106 s | 125 s | 73 s | 120 s | – | 20 ng/mL | – | – | – | – | – | – | – |
| C/C(=C\c1csc(CO)n1)[C@@H]1C[C@@H]2O[C@@H]2CCC[C@H](C)[C@H](O)[C@@H](C)C(=O)C(C)(C)[C@@H](O)CC(=O)O1 [Epothilone E] | – | – | – | – | – | – | – | – | – | – | – | – | – | – | 20 ng/mL | 1 ng/mL | 2 ng/mL | 1 ng/mL | 5 ng/mL | 5 ng/mL | IC50 [1]: 20 ng/mL (≈ 39.2 nM); IC50 [5]: 5 ng/mL (≈ 9.81 nM); IC-50 [9]: 20 ng/mL; IC-50 [7]: 3 ng/mL |
| C/C(=C\c1csc(CO)n1)[C@@H]1C[C@@H]2O[C@]2(C)CCC[C@H](C)[C@H](O)[C@@H](C)C(=O)C(C)(C)[C@@H](O)CC(=O)O1 [Epothilone F] | – | – | – | – | – | – | – | – | – | – | – | – | – | – | 1.5 ng/mL | 0.3 ng/mL | 0.5 ng/mL | 0.2 ng/mL | 0.5 ng/mL | 0.6 ng/mL | IC-50 [9]: 3 ng/mL; IC-50 [7]: 0.1 ng/mL |
